Reference: ChEMBL document CHEMBL1268889, “Structural characteristics of thiosemicarbazones as inhibitors of melanogenesis” (Bioorg Med Chem Lett, 2010)

Experiments:
B16 [1] = test: Inhibition of melanogenesis in mouse B16 cells at 10 uM; assay type: functional
B16 [2] = test: Inhibition of melanogenesis in mouse B16 cells; assay type: functional, cell-based

Compound | IC50 (B16 [2]) [µM] | inhibition at 10 µM (B16 [1]) [%]
Cc1ccc(/C=N/NC(N)=S)cc1 |  | 64
NC(=S)N/N=C/c1ccccc1 [PHENYLTHIOSEMICARBAZONE] | > 10 | < 10
NC(=S)N/N=C/c1ccccc1O | 21 | 24
COc1ccc(/C=N/NC(N)=S)cc1 | 15.1 | 42
CCc1ccc(/C=N/NC(N)=S)cc1 |  | > 100
N/C(S)=N/N=C/c1ccccn1 | > 30 | 15
COc1cccc(/C=N/NC(N)=S)c1 | 15.4 | 40
NC(=S)N/N=C/C1CCCCC1 | 3.4 | 81
NC(=S)N/N=C/c1ccc(Cl)cc1 | 4.2 | 92

Continued, in another order:

IC50 (B16 [2]) [µM] | Compound | inhibition at 10 µM (B16 [1]) [%]
2.8 | Cc1cccc(/C=N/NC(N)=S)c1 | > 100
2.4 | NC(=S)N/N=C/c1cccc(Cl)c1 | > 100
3.4 | Cc1ccccc1/C=N/NC(N)=S | > 100
2.7 | CCc1ccccc1/C=N/NC(N)=S | > 100
1.1 | NC(=S)N/N=C\c1cccc2ccccc12 | > 100
1.4 | NC(=S)N/N=C/c1ccccc1Cl | > 100
